The source of these data is patent publication US8865747B2, “Pioglitazone for use in the treatment of adrenoleukodystrophy” (Fundació Institut D'Investigació Biomèdica de Bellvitge …, priority 2012, dated 2014).

Data set [1] relates to Abcd1−/Abcd2−/− (DKO) mice. The experiment in a line: Immunohistochemistry / histology of dorsal spinal cord (axonal degeneration). To be noted: pioglitazone 4 months (13 to 17 months of age).
Excerpt: We set up a preclinical trial to assess the effect of pioglitazone on the progression of clinical signs using DKO null mice as the model Animals were randomly assigned to one of the following groups. […] We treated animals for 4 months starting at 13 months of age in order to start treatment at the onset of clinical signs [Lopez-Erauskin J. et al., Ann.
Spinal cords were harvested from 18 month-old wild type (WT), Abcd1^−/Abcd2^−/− (DKO) and Abcd1^−/Abcd2^−/− fed with pioglitazone for 4 months (DKO+PIO), after perfusion with PFA 4%, basically as described [Lopez-Erauskin J. et al., Ann. […] Spinal cords were embedded in paraffin and serial sections, 5 μm thick, were cut in a transversal or longitudinal plane.
The number of abnormal specific profiles was counted at every 10 sections for each particular stain. At least three sections corresponding to the dorsal columns of the spinal cord were analysed per animal and per stain. Results were expressed as mean values±standard deviations.
Immunohistochemistry experiments were performed.
The subject of data set [2] is Abcd1−/Abcd2−/− (DKO) mice. The experiment in a line: Horizontal bar cross test. The note with it: after 2 months of treatment, FIG. 19.
Procedure: We set up a preclinical trial to assess the effect of pioglitazone on the progression of clinical signs using DKO null mice as the model Animals were randomly assigned to one of the following groups.
The bar cross test was carried out using a wooden bar of 100 cm in length and 2 cm in width (diameter). This bar is just wide enough for the mice to stand on with their hind feet hanging over the edge such that any slight lateral misstep will result in a slip. […] Bar cross test was performed basically as previously described [Lopez-Erauskin J. et al., Ann.
Mice were evaluated by the treadmill test and the bar-cross at the start and re-scored after 2 (i.e 15 months of age), and 4 months (i.e. 17 months of age) of the treatment.
Data set [3] has as its system Abcd1-null mice. The data set is described as follows: ATP levels, NAD-NADH determination and pyruvate kinase activity in spinal cord. Format: in vivo, mouse. To be noted: Abcd1− mice fed 2 months with pioglitazone, 12 months of age. How it is done: (§1) Pioglitazone (Actos®) was mixed into AIN-76A chow from Dyets (Bethlehem, Pa.) at 0.012% w/w, corresponding to a dose of 9 mg/kg/day per mice [Yan Q. et al., J. Neurosci. 2003, 23, 7504-7509]. […] .
To determine ATP levels, mice were sacrificed by cervical dislocation and spinal cords immediately frozen in liquid nitrogen and stored at −80° C. ATP was extracted with cold perchloric acid (10%) from 10 mg of spinal cord, neutralized with KOH and centrifugated [Khan H. A. et al., J. Biosci. 2003, 28, 379-382]. Then, ATP concentrations were quantified in triplicate per animal using the ATPlite 1 step (PerkinElmer) according to the manufacturer's protocol. Data were normalized to mg of proteins. All assays were performed in triplicate.
NAD^+ and NADH were quantified by the NAD cycling assay and pyruvate kinase activity was determined by a spectrophotometrical method as previously described [Galino J. et al., Antiox. Redox Signal 2011, 15, 2095-2107].

Data set [4] concerns SIRT1. The data set is described as follows: SIRT1 fluorometric activity assay on spinal cord protein. Format: in vivo, mouse. To be noted: Abcd1− mice fed 2 months with pioglitazone, 12 months of age, FIG. 13. How it is done:
as §1
We used a SIRT1 fluorometric assay kit (BIOMOL) based on the generation of a fluorophore via the NADtdependent deacetylation by SIRT1 of its substrate, which is a peptide comprising amino acids 379-382 of human p53 (Arg-His-Lys-Lys(Acetyl) (SEQ ID NO: 7) [Howitz K. T. et al., Nature 2003, 425, 191-196; and Vaziri H. et al., Cell 2001, 107, 149-159]. The assay's fluorescence signal is generated in proportion to the amount of Lys-382 deacetylation [Chabi B. et al., J. Appl. Physiol. 2009, 107, 1730-1735]. Briefly, 25 μg of total protein were incubated with Fluor de Lys-Sirt1 substrate (100 μM) and NAD^+ (100 μM) at 37° C. for 30 min in a final volume of 50 μl. The reaction was stopped by the addition of 50 μl of developer reagent and nicotinamide (2 mM) and the fluorescence was subsequently monitored for 30 min at 360 nm (excitation) and 460 nm (emission).

Data set [5] has as its system SIRT1. The experiment in a line: SIRT1 immunoprecipitation and carbonyl (DNPH) measurement in spinal cord. It is filed as in vivo, mouse. The note with it: Abcd1− mice fed 2 months with pioglitazone, 12 months of age, FIG. 13. On the procedure: as §1
Since the specific carbonylated SIRT1 antibody is not available, SIRT1 has been immunoprecipitated to measure carbonyl levels, as earlier described [Caito S. et al., Faseb J. 2010, 24, 3145-3159]. Protein (200 μg) extracted from whole spinal cord in a final volume of 400 μl RIPA buffer was incubated for 1 h with SIRT1 antibody [12193, (Abcam)] ((Abcam, 12193), dilution 1:80). Protein A sepharose (Amersham) was suspended in PBS for 1 h then blocked in BSA (1%) for 1 h. Protein A sepharose (50 μl ) was added to each sample and left overnight at 4° C. on a rotator. The samples are then centrifuged at 13,000 rpm at 4 ° C. for 5 min. […] Neural. 2011, 70, 84-92].

Data set [6] concerns Abcd1-null mice. The data set is described as follows: Western blot of mitochondrial and antioxidant proteins in spinal cord. It is filed as in vivo, mouse. To be noted: Abcd1− mice fed 2 months with pioglitazone.
Excerpt: The following antibodies were used for Western Blots: anti-mouse NADH-ubiquinol oxidoreductase (NDUFB8: complex I): dilution 1/2000 (Molecular Probes); anti-mouse anti-Porin 31HL (VDAC or Voltage Dependant Anion Channel): dilution 1/1000 (Calbiochem); anti-rabbit DNP: dilution 1/100 (Invitrogen); anti-mouse PGC-1a: dilution 1/1000 (ST1202, Calbiochem); anti-rabbit SIRT1 for mouse: dilution 1/500 (12193, Abcam); anti-rabbit SIRT1 for human: dilution 1/500 (32441, Abcam) and anti-mouse γ-tubulin: dilution 1/5000 (T6557, clone GTU-88, Sigma). Goat anti-rabbit IgG linked to horseradish peroxidase, dilution: 1/15000 (P0448, Dako, Glostrup, Denmark) and Goat anti-mouse IgG linked to horseradish peroxidase, dilution: 1/15000 (G21040, Invitrogen) have been used as secondary antibodies.
as §1
Tissues were removed from euthanized mice and flash-frozen on liquid nitrogen. Frozen tissues were homogenized in RIPA buffer boiled for 5 min and centrifuged. We measured protein concentration of the supernatant with a BCA (bicinchoninic acid) Protein Assay Kit (Pierce). 10 to 100 μg were loaded onto each lane of 10% polyacrylamide gels for 60 min at […]. Resolved proteins were transferred to nitrocellulose. Proteins were detected with ECL western blotting analysis system (Amersham Biosciences).

The nature of data set [7]: Weight and food intake during dietary treatment. Format: in vivo, mouse. To be noted: both protocols of treatment (Abcd1-null 2 months; DKO 4 months), 9 mg/kg/day in chow. How it is done:
Pioglitazone (Actos®) was mixed into AIN-76A chow from Dyets (Bethlehem, Pa.) at 0.012% w/w, corresponding to a dose of 9 mg/kg/day per mice [Yan Q. et al., J. Neurosci. 2003, 23, 7504-7509]. […] Neurol. […] Mol. Genet. […] Mol. Genet. […] Mol. Genet. 2005, 14, 3565-3577].

Data set [8] deals with Abcd1-null mice. The experiment in a line: GC/MS measurement of oxidative lesion markers in spinal cord proteins. The note with it: Abcd1− mice fed 2 months with pioglitazone, FIG. 15a. Format: in vivo, mouse. On the procedure: as §1
Data set [9] concerns Abcd1-null mice. The experiment in a line: Relative gene expression by quantitative RT-PCR in spinal cord. Format: in vivo, mouse. To be noted: Abcd1− mice fed 2 months with pioglitazone, 12 months of age, FIG. 12. On the procedure:
as §1
First tissues were lysed using Trizol reagent (Invitrogen), then total RNA was extracted using RNeasy Kit (Qiagen). Lysis and extraction were performed according to the manufacturer's instructions. Total DNA from tissues was extracted using Gentra Puregene Tissue Kit (Qiagen) according to the manufacturer's instructions.
[…] of RNA was transcribed into cDNA using Superscript II reverse transcription reagents in a final volume of 25 μl (Invitrogen). A TaqMan real time PCR was performed within the ABI PRISM 7300HT sequence detection system using the TaqMan Universal PCR master mix and the standardized primers for mouse SIRT1 (Mm00490758) PGC-1α (Mm00447183), PGC-1β (Mm01258518), ERRα (Mm00433143), NRF-1 (Mm00447996), TFAM (Mm00447485), TFB1M (Mm00524825) and TFB2M (Mm01620397). To measure gene expression and mtDNA abundance 0.1 to 0.2 μl of cDNA and 100 ng of DNA were respectively used.
To quantify mouse and human mtDNA content, two probes (mouse cytochrome b (cytb) (Gene ID: 17711) and human cytochrome c […] subunit II (COXII) (Gene ID: 4513) were respectively designed (Custom TaqMan Gene Expression Assays; Applied Biosystems). The sequences for mouse cytb primers were: […] (SEQ ID NO: 1) (forward) and […] (SEQ ID NO: 2) (reverse) and the FAM-labeled probe was TTGCAACTATAGCAACAG (SEQ ID NO: 3). The sequences for human COXII primers were: […] (SEQ ID NO: 4) (forward) and […] (SEQ ID NO: 5) (reverse) and the FAM-labeled probe was AAATCTGTGGAGCAAACC (SEQ ID NO: 6). Quantification of mtDNA was referred to nuclear DNA as determined by the amplification of the intronless nuclear gene C/EBPα. (Mouse and human CEBPα are respectively: Mm00514283, Hs00269972.). Each sample was run in duplicate, and the mean value of the duplicate was used to calculate the mRNA expression of the genes of interest which were normalized to that of the reference control (18S, Hs99999901) using the comparative (2^−ΔCt) method, according to the manufacturer's instructions.

For data set [10] the following is noted: Yamada T. et al. 2000; cited from earlier work.
A further data set deals with X-ALD patients. To be noted: recent study in X-ALD patients; cited from earlier work.
Setting [11] is: spinal cord, 12 months of age, FIG. 11.

“Also recorded” adds a separate entry of the source.

Take `CCc1ccc(CCOc2ccc(CC3SC(=O)NC3=O)cc2)nc1` (racemic) [pioglitazone, 5-(4-[2-(5-ethylpyridin-2-yl)ethoxy]benzyl)thiazolidine-2,4-dione]: in [1] (FIG. 16), the “number of reactive astrocytes” value was “strikingly reduced to control levels” and the “number of reactive microglia” value was “strikingly reduced to control levels”. Further, in data set [1] (FIG. 16, 17), the “accumulation of markers of axonal damage (APP, synaptophysin in axonal swellings)” value was “strikingly reduced to control levels”. In data set [2], the number of slips result was “full normalisation” and the “time used to cross the bar” value is given as “full normalisation”. The ATP levels entry with Abcd1-null mice [3] (FIG. 14a) is “normalised”. In addition, the NADH levels entry with Abcd1-null mice [3] (FIG. 14b) is on record as “normalised”. Moreover, the “activity of pyruvate kinase” value with Abcd1-null mice [3] (FIG. 14c) is “normalised”. For the same compound, in the data set with SIRT1 [4], the SIRT1 activity entry is “rescued; also recorded: normalized”. Besides, the “levels of carbonylation on SIRT1 protein (SIRT1 oxidation)” value in the data set with SIRT1 [5] is reported as “lowered; also recorded: normalized”. In addition, the GPX1 protein level result in the data set with Abcd1-null mice [6] (FIG. 15b) is listed as “normalized”. Further, in the data set on Abcd1-null mice [6] (setting [11]), the NDUFB8 protein level result is “increased” and the VDAC protein level result is “increased”. In [7], the food intake entry is given as “no effect” and the weight result is reported as “no effect”. Further, in the data set on Abcd1-null mice [8], the AASA content entry was “normalized”, the “CEL (glycoxidative) content” value is “normalized”, the GSA content entry is listed as “normalized” and the “MDAL (lipoxidative) content” value is reported as “normalized”. For the same compound, in the data set on Abcd1-null mice [9], the “NRF1 mRNA” value is given as “increased”, the SIRT1 expression entry is “no effect”, the “TFAM mRNA” value is “increased” and the “expression of PGC-1α mRNA” value was “increased”.
As to `CC[C@H](C)C(=O)O[C@H]1C[C@@H](C)C=C2C=C[C@H](C)[C@H](CC[C@@H]3C[C@@H](O)CC(=O)O3)[C@H]21` [Lovastatin], the effect in vitro result in data set [10] is “some effect”.
For the compound `CCCC(CCC)C(=O)O` [VPA, valproic acid], in the data set on X-ALD patients, the adverse effects result is listed as “adverse effects such as trembling”.
